Laboratory results from publication PMC9369794 (Molecules, 2022).

What was measured:
[1] = Kinetic solubility in PBS pH 7.4; format: physicochemical; conditions: aqueous buffer, kinetic from dmso stock, kinetic solubility after 2 h, at 37 °C in PBS, nominal 250 μM, read-out: Kin.Sol.
Procedure: On a 96-well polypropylene plate (Greiner bio-one) 7.5 μL stock solutions were added to 292.5 μL PBS (pH 7.4) to make a solution with the nominal concentration of 250 μM. For each sample 3 replicates were measured. […] After that, each sample was transferred into a filter plate (MSSBLPC, Multiscreen Filter plate, Merck kGaA) and filtered (Vaccum Manifold, Merck kGaA, Darmstadt, Germany). The filtrates were transferred into UV-Star microplates (Greiner bio-one) and acetonitrile (AcN) was added to each well to avoid precipitation. The final solvent ratio was AcN:PBS 70:30. UV-Vis spectra were collected for each replicate by a Multiskan Sky UV-plate reader (Thermo Scientific, Waltham, MA, USA) in a wavelength range of 250–700 nm, with 1 nm steps. After blank substraction, the kinetic solubility of the samples was determined based on absorption at λmax using a 5-point calibration curve for each sample recorded in 70:30 AcN:PBS solvent.
Limit of detection (LOD) and limit of quantification (LOQ) were calculated with Equations (1) and (2) respectively, based on UV-Vis spectral data:(1) LOD=3.3×σ/s (2) LOQ=10×σ/s where the σ value in the equations stands for the standard deviation of the absorption base line at 700 nm (where no sample-specific absorption was observed). The s value is the slope of the calibration curve recorded for each sample based on their absorption at λmax (Table 4.)

Water dispersibility = format: physicochemical; conditions: distilled water, sonication
Procedure: About 2 mg of the examined substance was dispersed in 40 mL of distilled water and the suspension was sonicated for 2 min. The addition of water was continued with 10 mL portions, after each portion the mixture was sonicated for 2 min. This process was continued till a homogenous solution was observed by naked eye. Then, the solution was let to stand for an hour to inspect any precipitate formation, but no changes occurred in any of the cases.

[2] = FRAP assay for the antioxidant capacity; parameters: key to FRAP: slope of concentration-absorbance line divided by Trolox slope; conditions: for FRAP: stock in THF, acetate buffer pH 3.0, 37 °C, 15 min, ratio of slopes to trolox (melatonin in EtOH)
Outline: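 Fe^3+→Fe^2+ reduction by antioxidants (THF stocks) in FRAP reagent (FeCl3/TPTZ, 300 mM acetate buffer pH 3.0), 15 min at 37 °C in the dark. Absorbance at 600 nm measured in triplicate at 0-17.5 μM final. FRAP value = slope of absorbance-concentration line divided by Trolox slope.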

[3] = Study of aggregation by UV-Vis spectrophotometry; format: physicochemical; conditions: for change of UV spectrum with increasing ratio of PBS: starting from THF solutions
Outline: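 Conjugates dissolved in THF and diluted with THF or THF-PBS mixtures (1:1, 1:3) at identical carotenoid concentration; separately, 2.5∙10−4 M DMSO stocks added to PBS to final 0.3125–5 μM carotenoid. UV-Vis spectra recorded to follow band shifts and fine-structure changes; DMSO-PBS solutions also examined by DLS.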

solubility kinetic at 2 h [1]	Water Dispersibility (Water dispersibility)	change of UV spectrum with increasing ratio of PBS [3]	Structure (SMILES)	FRAP value relative to the succinates of the other carotenoids ([2]; acetate buffer pH 3.0)	FRAP [2]	type of aggregates formed ([3]; from THF:aqueous solutions)
52.3 ± 2.4 µM	1.5 mg/100 mL	did not cause much change	CC1=C(/C=C/C(C)=C/C=C/C(C)=C/C=C/C=C(C)/C=C/C=C(\C)COC(=O)CCC(=O)O)C(C)(C)CCC1 [Compound 6, 8′-Apo-β-carotenol succinate]	1.5–2 times	0.276	–
0.6 ± 0.1 µM	1.3 mg/100 mL	did not cause much change	CC1=C(/C=C/C(C)=C/C=C/C(C)=C/C=C/C=C(C)/C=C/C=C(C)/C=C/C2=C(C)C[C@@H](OC(=O)CCC(=O)O)CC2(C)C)C(C)(C)C[C@H](OC(=O)CCC(=O)O)C1 [Compound 7, Zeaxanthin bissuccinate]	–	0.155	–

Structure (SMILES)	solubility kinetic at 2 h [1]	Water Dispersibility (Water dispersibility)	change of UV spectrum with increasing ratio of PBS [3]	FRAP value relative to the succinates of the other carotenoids ([2]; acetate buffer pH 3.0)	FRAP [2]	type of aggregates formed ([3]; from THF:aqueous solutions)
CC1=C(/C=C/C(C)=C/C=C/C(C)=C/C=C/C=C(C)/C=C/C=C(C)/C=C/C2=C(C)C[C@@H](OC(=O)CCC(=O)O)CC2(C)C)C(C)(C)CCC1 [Compound 8, β-Cryptoxanthin succinate]	1.3 ± 0.1 µM	less than 0.5 mg/100 mL	bathochromic shift	–	0.181	J-type (head-to-tail) aggregates
